Patent US9493537B2, “Compounds with reduced ring size for use in diagnosing and treating melanoma, including metastatic melanoma and methods related to same” (STC.UNM, priority 2009, dated 2016)
Where two headings read alike, the source gives them in different places.

Experiment: Biodistribution in B16/F1 melanoma-bearing C57 mice
Assay type: in vivo
Details: female, C57, mouse, iv, total radioactivity; for tissue uptake at 0.5 h: 0.5 h post-injection; for tissue uptake at 4 h: 4 h post-injection; for tissue uptake at 24 h: 24 h post-injection
Method: All the animal studies were conducted in compliance with Institutional Animal Care and Use Committee approval. The mice were housed five animals per cage in sterile micro-isolator cages in a temperature- and humidity-controlled room with a 12-h light/12-h dark schedule. […] C57 mice were subcutaneously inoculated on the right flank with 1×10^6 B16/F1 cells. The weight of tumors reached approximately 0.2 g 10 days post cell inoculation. […] Groups of 5 mice were sacrificed at 0.5, 2, 4 and 24 h post-injection, and tumors and organs of interest were harvested, weighed and counted. Blood values were taken as 6.5% of the whole-body weight. […] The mice were sacrificed at 2 h post-injection. The tumor and organs of interest were harvested, weighed and counted.
All animal studies were conducted in compliance with Institutional Animal Care and Use Committee approval. The pharmacokinetics of ^111In-DOTA-GGNle-CycMSHhex and ^111In-DOTA-GENle-CycMSHhex were determined in B16/F1 melanoma-bearing C57 female mice (Harlan, Indianapolis, Ind.). The C57 mice were subcutaneously inoculated with 1×10^6 B16/F1 cells on the right flank for each mouse to generate B16/F1 melanomas. Ten days post inoculation, the tumor weights reached approximately 0.2 g. Each melanoma-bearing mouse was injected with 0.037 MBq of ^111In-DOTA-GGNle-CycMSHhex or ^111In-DOTA-GENle-CycMSHhex via the tail vein. Groups of 5 mice were sacrificed at 0.5, 2, 4 and 24 h post-injection, and tumors and organs of interest were harvested, weighed and counted. Blood values were taken as 6.5% of the whole-body weight. The specificities of the tumor uptake of ^111In-DOTA-GGNle-CycMSHhex and ^111In-DOTA-GENle-CycMSHhex were determined by co-injecting 10 μg (6.07 nmol) of unlabeled NDP-MSH which is a linear α-MSH peptide analogue with picomolar MC1 receptor binding affinity.

[1] = liver, 0.037 MBq, read-out: Liver uptake
[2] = lung, 0.037 MBq, read-out: Lung uptake
[3] = muscle, 0.037 MBq, read-out: Muscle uptake
[4] = pancreas, 0.037 MBq, read-out: Pancreas uptake
[5] = skin, 0.037 MBq, read-out: Skin uptake
[6] = spleen, 0.037 MBq, read-out: Spleen uptake
[7] = stomach, 0.037 MBq, read-out: Stomach uptake
[8] = tumor, 0.037 MBq, read-out: Tumor uptake

Question: Which tissue uptake at 2 h (kidneys, 2 h post-injection, L-lysine co-injection, read-out: Kidneys uptake) does the source give for `CCCC[C@H](NC(=O)CN1CCN(CC(=O)O)CCN(CC(=O)O)CCN(CC(=O)O)CC1)C(=O)N[C@H]1CC(=O)NCCCC[C@@H](C(N)=O)NC(=O)[C@H](Cc2c[nH]c3ccccc23)NC(=O)[C@H](CCCNC(=N)N)NC(=O)[C@@H](Cc2ccccc2)NC(=O)[C@H](Cc2c[nH]cn2)NC1=O` [^111In-DOTA-Nle-CycMSHhex, metal not drawn] here?
Answer: 6.66 ± 0.62 %ID/g

Question: And the tissue uptake at 2 h (kidneys, 2 h post-injection, NDP blockade, read-out: Kidneys uptake)?
Answer: 11.6 ± 0.56 %ID/g

Question: And the tissue uptake at 0.5 h [1]?
Answer: 2.75 ± 0.26 %ID/g

Question: What about the tissue uptake at 2 h (liver, 0.037 MBq, 2 h post-injection, read-out: Liver uptake) of the same compound?
Answer: 1.46 ± 0.2 %ID/g

Question: What about the tissue uptake at 4 h [1] of the same compound?
Answer: 1.72 ± 0.07 %ID/g

Question: What about the tissue uptake at 24 h [1] of the same compound?
Answer: 1.89 ± 0.14 %ID/g

Question: What about the tissue uptake at 2 h (liver, 2 h post-injection, L-lysine co-injection, read-out: Liver uptake) of the same compound?
Answer: 1.42 ± 0.3 %ID/g

Question: What about the tissue uptake at 2 h (liver, 2 h post-injection, NDP blockade, read-out: Liver uptake) of the same compound?
Answer: 1.46 ± 0.08 %ID/g

Question: And the tissue uptake at 0.5 h [2]?
Answer: 2.45 ± 0.83 %ID/g

Question: And the tissue uptake at 2 h (lung, 0.037 MBq, 2 h post-injection, read-out: Lung uptake)?
Answer: 0.32 ± 0.1 %ID/g

Question: What about the tissue uptake at 4 h [2] of the same compound?
Answer: 0.1 ± 0.05 %ID/g

Question: And the tissue uptake at 24 h [2]?
Answer: 0.1 ± 0.03 %ID/g

Question: What about the tissue uptake at 2 h (lung, 2 h post-injection, L-lysine co-injection, read-out: Lung uptake) of the same compound?
Answer: 0.75 ± 0.21 %ID/g

Question: And the tissue uptake at 2 h (lung, 2 h post-injection, NDP blockade, read-out: Lung uptake)?
Answer: 0.3 ± 0.06 %ID/g

Question: And the tissue uptake at 0.5 h [3]?
Answer: 0.6 ± 0.22 %ID/g

Question: And the tissue uptake at 2 h (muscle, 0.037 MBq, 2 h post-injection, read-out: Muscle uptake)?
Answer: 0.15 ± 0.08 %ID/g

Question: And the tissue uptake at 4 h [3]?
Answer: 0.1 ± 0.08 %ID/g

Question: What about the tissue uptake at 24 h [3] of the same compound?
Answer: 0.03 ± 0.01 %ID/g

Question: And the tissue uptake at 2 h (muscle, 2 h post-injection, L-lysine co-injection, read-out: Muscle uptake)?
Answer: 0.1 ± 0.08 %ID/g

Question: And the tissue uptake at 2 h (muscle, 2 h post-injection, NDP blockade, read-out: Muscle uptake)?
Answer: 0.02 ± 0.01 %ID/g

Question: What about the tissue uptake at 0.5 h [4] of the same compound?
Answer: 1.18 ± 0.38 %ID/g

Question: What about the tissue uptake at 2 h (pancreas, 0.037 MBq, 2 h post-injection, read-out: Pancreas uptake) of the same compound?
Answer: 0.14 ± 0.02 %ID/g

Question: And the tissue uptake at 4 h [4]?
Answer: 0.16 ± 0.02 %ID/g

Question: What about the tissue uptake at 24 h [4] of the same compound?
Answer: 0.23 ± 0.08 %ID/g

Question: And the tissue uptake at 2 h (pancreas, 2 h post-injection, L-lysine co-injection, read-out: Pancreas uptake)?
Answer: 0.21 ± 0.05 %ID/g

Question: And the tissue uptake at 2 h (pancreas, 2 h post-injection, NDP blockade, read-out: Pancreas uptake)?
Answer: 0.12 ± 0.02 %ID/g

Question: And the tissue uptake at 0.5 h [5]?
Answer: 4.11 ± 0.72 %ID/g

Question: And the tissue uptake at 2 h (skin, 0.037 MBq, 2 h post-injection, read-out: Skin uptake)?
Answer: 0.66 ± 0.23 %ID/g

Question: What about the tissue uptake at 4 h [5] of the same compound?
Answer: 0.53 ± 0.05 %ID/g

Question: And the tissue uptake at 24 h [5]?
Answer: 0.64 ± 0.16 %ID/g

Question: What about the tissue uptake at 2 h (skin, 2 h post-injection, L-lysine co-injection, read-out: Skin uptake) of the same compound?
Answer: 1.02 ± 0.09 %ID/g

Question: And the tissue uptake at 2 h (skin, 2 h post-injection, NDP blockade, read-out: Skin uptake)?
Answer: 0.29 ± 0.02 %ID/g

Question: And the tissue uptake at 0.5 h [6]?
Answer: 1.09 ± 0.33 %ID/g

Question: And the tissue uptake at 2 h (spleen, 0.037 MBq, 2 h post-injection, read-out: Spleen uptake)?
Answer: 0.41 ± 0.13 %ID/g

Question: What about the tissue uptake at 4 h [6] of the same compound?
Answer: 0.47 ± 0.13 %ID/g

Question: What about the tissue uptake at 24 h [6] of the same compound?
Answer: 0.32 ± 0.08 %ID/g

Question: What about the tissue uptake at 2 h (spleen, 2 h post-injection, L-lysine co-injection, read-out: Spleen uptake) of the same compound?
Answer: 0.43 ± 0.07 %ID/g

Question: And the tissue uptake at 2 h (spleen, 2 h post-injection, NDP blockade, read-out: Spleen uptake)?
Answer: 0.44 ± 0.02 %ID/g

Question: What about the tissue uptake at 0.5 h [7] of the same compound?
Answer: 3.2 ± 0.98 %ID/g

Question: And the tissue uptake at 2 h (stomach, 0.037 MBq, 2 h post-injection, read-out: Stomach uptake)?
Answer: 1.25 ± 0.24 %ID/g

Question: And the tissue uptake at 4 h [7]?
Answer: 1.49 ± 0.12 %ID/g

Question: What about the tissue uptake at 24 h [7] of the same compound?
Answer: 1.34 ± 0.42 %ID/g

Question: And the tissue uptake at 2 h (stomach, 2 h post-injection, L-lysine co-injection, read-out: Stomach uptake)?
Answer: 1.64 ± 0.78 %ID/g

Question: And the tissue uptake at 2 h (stomach, 2 h post-injection, NDP blockade, read-out: Stomach uptake)?
Answer: 0.36 ± 0.14 %ID/g

Question: What about the tissue uptake at 0.5 h [8] of the same compound?
Answer: 24.9 ± 4.58 %ID/g

Question: And the tissue uptake at 2 h (tumor, 0.037 MBq, 2 h post-injection, read-out: Tumor uptake)?
Answer: 19.4 ± 1.65 %ID/g

Question: What about the tissue uptake at 4 h [8] of the same compound?
Answer: 17 ± 2.54 %ID/g

Question: What about the tissue uptake at 24 h [8] of the same compound?
Answer: 10.5 ± 1.11 %ID/g

Question: And the tissue uptake at 2 h (tumor, 2 h post-injection, L-lysine co-injection, read-out: Tumor uptake)?
Answer: 14.5 ± 3.25 %ID/g

Question: What about the tissue uptake at 2 h (tumor, 2 h post-injection, NDP blockade, read-out: Tumor uptake) of the same compound?
Answer: 0.81 ± 0.03 %ID/g

Question: And the dose excreted at 2 h (urine, 0.037 MBq, 2 h post-injection, read-out: Urine, percent injected dose)?
Answer: 82.2 ± 5.83%
